According to patent US11470846B2, “Herbicidal pyridino-/pyrimidino-thiazoles” (SYNGENTA PARTICIPATIONS AG, priority 2014, dated 2022):

Legend:
Format in all cases: in vivo
[1] = system: Alopecurus myosuroides (ALOMY); test: Pre-emergence herbicidal activity; conditions: pre-emergence application, 1000 g/Ha, evaluated after 13 days, scale 0-5
Protocol: (§1) B1 Pre-Emergence Herbicidal Activity
(§2) Seeds of a variety of test species were sown in standard soil in pots: Triticum aestivium (TRZAW), Oryza sativa (ORYSA), Avena fatua (AVEFA), Alopecurus myosuroides (ALOMY), Echinochloa crus-galli (ECHCG), Lolium perenne (LOLPE), Zea Mays (ZEAMX), Abutilon theophrasti (ABUTH), Amaranthus retroflexus (AMARE) and Setaria faberi (SETFA). After cultivation for one day (pre-emergence) under controlled conditions in a glasshouse (at 24/16° C., day/night; 14 hours light; 65% humidity), the plants were sprayed with an aqueous spray solution derived from the formulation of the technical active ingredient in acetone/water (50:50) solution containing 0.5% Tween 20 (polyoxyethelyene sorbitan monolaurate, CAS RN 9005-64-5). The test plants were then grown in a glasshouse under controlled conditions (at 24/16° C., day/night; 14 hours light; 65% humidity) and watered twice daily. After 13 days, the test was evaluated (5=total damage to plant; 0=no damage to plant).

[2] = system: Avena fatua (AVEFA); test: Pre-emergence herbicidal activity; conditions: pre-emergence application, 1000 g/Ha, evaluated after 13 days, scale 0-5
Protocol: as §1, §2

[3] = system: Echinochloa crus-galli (ECHCG); test: Pre-emergence herbicidal activity; conditions: pre-emergence application, 1000 g/Ha, evaluated after 13 days, scale 0-5; Table 5
Protocol: as §1, §2

[4] = system: Lolium perenne (LOLPE); test: Pre-emergence herbicidal activity; conditions: pre-emergence application, 1000 g/Ha, evaluated after 13 days, scale 0-5; Table 5
Protocol: as §1, §2

[5] = system: Oryza sativa (ORYSA); test: Pre-emergence herbicidal activity; conditions: pre-emergence application, 1000 g/Ha, evaluated after 13 days, scale 0-5
Protocol: as §1, §2

[6] = system: Triticum aestivium (TRZAW); test: Pre-emergence herbicidal activity; conditions: pre-emergence application, 1000 g/Ha, evaluated after 13 days, scale 0-5
Protocol: as §1, §2

[7] = system: Alopecurus myosuroides (ALOMY); test: Post-emergence herbicidal activity; conditions: post-emergence application, 1000 g/Ha, evaluated after 13 days, scale 0-5
Protocol: (§3) B2 Post-Emergence Herbicidal Activity
(§4) Seeds of a variety of test species were sown in standard soil in pots: Triticum aestivium (TRZAW), Oryza sativa (ORYSA), Avena fatua (AVEFA), Alopecurus myosuroides (ALOMY), Echinochloa crus-galli (ECHCG), Lolium perenne (LOLPE), Zea Mays (ZEAMX), Abutilon theophrasti (ABUTH), Amaranthus retroflexus (AMARE) and Setaria faberi (SETFA). After 8 days cultivation (post-emergence) under controlled conditions in a glasshouse (at 24/16° C., day/night; 14 hours light; 65% humidity), the plants were sprayed with an aqueous spray solution derived from the formulation of the technical active ingredient in acetone/water (50:50) solution containing 0.5% Tween 20 (polyoxyethelyene sorbitan monolaurate, CAS RN 9005-64-5). The test plants were then grown in a glasshouse under controlled conditions (at 24/16° C., day/night; 14 hours light; 65% humidity) and watered twice daily. After 13 days, the test was evaluated (5=total damage to plant; 0=no damage to plant).

[8] = system: Avena fatua (AVEFA); test: Post-emergence herbicidal activity; conditions: post-emergence application, 1000 g/Ha, evaluated after 13 days, scale 0-5
Protocol: as §3, §4

[9] = system: Echinochloa crus-galli (ECHCG); test: Post-emergence herbicidal activity; conditions: post-emergence application, 1000 g/Ha, evaluated after 13 days, scale 0-5; Table 7
Protocol: as §3, §4

[10] = system: Lolium perenne (LOLPE); test: Post-emergence herbicidal activity; conditions: post-emergence application, 1000 g/Ha, evaluated after 13 days, scale 0-5; Table 7
Protocol: as §3, §4

[11] = system: Oryza sativa (ORYSA); test: Post-emergence herbicidal activity; conditions: post-emergence application, 1000 g/Ha, evaluated after 13 days, scale 0-5
Protocol: as §3, §4

[12] = system: Triticum aestivium (TRZAW); test: Post-emergence herbicidal activity; conditions: post-emergence application, 1000 g/Ha, evaluated after 13 days, scale 0-5
Protocol: as §3, §4

| SMILES | Control of weed species, ALOMY (damage score) [1] | Control of weed species, AVEFA (damage score) [2] | Control of weed species, ECHCG (damage score) [3] | Control of weed species, LOLPE (damage score) [4] | Control of weed species, ORYSA (damage score) [5] | Control of weed species, TRZAW (damage score) [6] | Control of weed species, ALOMY (damage score) [7] | Control of weed species, AVEFA (damage score) [8] | Control of weed species, ECHCG (damage score) [9] | Control of weed species, LOLPE (damage score) [10] | Control of weed species, ORYSA (damage score) [11] | Control of weed species, TRZAW (damage score) [12] |
| --- | --- | --- | --- | --- | --- | --- | --- | --- | --- | --- | --- | --- |
| Cc1nc(-c2cncc(N)c2)sc1N(C)C(=O)OC(C)(C)C [Compound A11] | 1 | 1 | 2 | 0 | 2 | 2 | 1 | 1 | 2 | 1 | 1 | 2 |
| CSc1cncc(-c2nc(C)c(N(C)C(=O)OC(C)(C)C)s2)c1 [Compound A12] | 0 | 3 | 3 | 1 | 0 | 0 | 0 | 2 | 4 | 3 | 1 | 2 |
| Cc1nc(-c2cncc(N(C)C)c2)sc1N(C)C(=O)OC(C)(C)C [Compound A13] | 0 | 0 | 1 | 0 | 1 | 0 | 1 | 0 | 2 | 0 | 1 | 2 |
| Cc1nc(-c2cncc(OCc3ccccc3)c2)sc1N(C)C(=O)OC(C)(C)C [Compound A14] | 0 | 0 | 0 | 1 | 0 | 1 | 0 | 0 | 1 | 0 | 0 | 0 |
| Cc1nc(-c2cncc(O)c2)sc1N(C)C(=O)OC(C)(C)C [Compound A15] | 0 | 0 | 0 | 0 | 0 | 0 | 0 | 2 | 1 | 1 | 0 | 1 |
| Cc1nc(-c2cncc(OC(F)F)c2)sc1N(C)C(=O)OC(C)(C)C [Compound A16, tert-butyl N-[2-[5-(difluoromethoxy)-3-pyridyl]-4-methyl-thiazol-5-yl]-N-methyl-carbamate] | 0 | 3 | 4 | 4 | 1 | 3 | 3 | 5 | 5 | 4 | 0 | 4 |
